The source of these data is patent US8987456B2, “3-pyridyl carboxamide-containing spleen tyrosine kinase (SYK) inhibitors” (Merck Sharp & Dohme Corp., priority 2011, dated 2015).

The target of data set [1] is T1, recombinant human GST-SYK (Homo sapiens, UniProt P43405).
T1 construct: purchased Carna Biosciences 08-176
Kind of data set: Homogeneous Time-Resolved Fluorescence (HTRF) assay for the recombinant human Syk enzyme. It counts as biochemical. Particulars: 5 pM GST-SYK, 25 μM ATP, 10-dose titration. The method, then:
Biological Assay Homogeneous Time-Resolved Fluorescence (HTRF) Assay for the Recombinant Human Syk Enzyme
A recombinant GST-hSYK fusion protein was used to measure potency of compounds to inhibit human Syk activity. […] Final volume of the reaction was 10 μL. Phosphorylation of the peptide was allowed to proceed for 45′ at room temperature. To quench the reaction and detect the phosphorylated product, 2 nM of a Europium-anti-phosphotyrosine antibody (Perkin Elmer #AD0161) and 70 nM SA-APC (Perkin-Elmer #CR130-100) were added together in 15 mM Tris pH 7.5, 40 mM EDTA, 0.01% tween 20. Final volume of the quenching solution was 10 μL. The resulting HTRF signal was measured after 30 minutes on an EnVision (Perkin-Elmer) reader using a time-resolved fluorescence protocol.

Data set [2] relates to allergic rhinitis. Particulars: phase II clinical trial; cited from earlier work.
The subject of data set [3] is allergic rhinitis. Particulars: dosed intranasally, phase I/II study; cited from earlier work.

Like-named read-outs stand apart in the source and are kept apart here. Bounds are passed on as bounds.

As for `Cc1cc(C)nc(Nc2cc(NCC(N)C(F)(F)F)ncc2C(N)=O)c1` (racemic) [Example 2.3, 6-[(2-amino-3,3,3-trifluoropropyl)amino]-4-[(4,6-dimethylpyridin-2-yl)amino]pyridine-3-carboxamide], the IC50 in data set [1] (read-out: IC50) was 3500 nM; in data set [1] (read-out: rhSYK Activity), 1000 to 10000 nM.

As for `Cc1cc(C)nc(Nc2cc(NCC3(N)CCOC3)ncc2C(N)=O)c1` (racemic) [Example 2.6, 6-{[(3-aminotetrahydrofuran-3-yl)methyl]amino}-4-[(4,6-dimethylpyridin-2-yl)amino]pyridine-3-carboxamide], in data set [1] (read-out: rhSYK Activity), the IC50 was in the range of 1000 to 10000 nM.

Consider `CCC(C)(N)CNc1cc(Nc2cccc(C)n2)c(C(N)=O)cn1` (racemic) [Example 2.9, 6-[(2-amino-2-methylbutyl)amino]-4-[(6-methylpyridin-2-yl)amino]pyridine-3-carboxamide], for which the IC50 in data set [1] (read-out: rhSYK Activity) was in the range of 100 to 1000 nM.

In the case of `Cc1cc(C)nc(Nc2cc(NC(C)CN)ncc2C(N)=O)c1` (racemic) [Example 2.10, 6-[(2-amino-1-methylethyl)amino]-4-[(4,6-dimethylpyridin-2-yl)amino]pyridine-3-carboxamide], the IC50 in data set [1] (read-out: IC50) was 3200 nM; in data set [1] (read-out: rhSYK Activity) it was 1000 to 10000 nM.

`CCCC(N)CNc1cc(Nc2cccc(C)n2)c(C(N)=O)cn1` (racemic) [Example 2.11, 6-[(2-aminopentyl)amino]-4-[(6-methylpyridin-2-yl)amino]pyridine-3-carboxamide]: the IC50 in data set [1] (read-out: rhSYK Activity) is 10 to 100 nM.

In the case of `Cc1cccc(Nc2cc(NCC(N)C3CC3)ncc2C(N)=O)n1` (racemic) [Example 2.12, 6-[(2-amino-2-cyclopropylethyl)amino]-4-[(6-methylpyridin-2-yl)amino]pyridine-3-carboxamide], the IC50 in data set [1] (read-out: rhSYK Activity) was 100 to 1000 nM.

For `Cc1cc(C)nc(Nc2cc(N[C@@H]3COC[C@H]3N)ncc2C(N)=O)c1` (relative stereo) [Example 2.4, rel-6-{[(3S,4S)-4-aminotetrahydrofuran-3-yl]amino}-4-[(4,6-dimethylpyridin-2-yl)amino]pyridine-3-carboxamide], in data set [1] (read-out: rhSYK Activity), the IC50 lay in the range of 1000 to 10000 nM.

On to `Cc1cccc(Nc2cc(N[C@@H]3CCCC[C@H]3N)ncc2C(N)=O)n1` (relative stereo) [Example 2.8, rel-6-{[(1R,2R)-2-aminocyclohexyl]amino}-4-[(6-methylpyridin-2-yl)amino]pyridine-3-carboxamide], for which, in data set [1] (read-out: rhSYK Activity), the IC50 was in the range of 100 to 1000 nM.

Turning to `NC(=O)c1cnc(N[C@@H]2CCCC[C@@H]2N)cc1Nc1cccc(C(F)(F)F)n1` [Example 1.1, 6-{[(1R,2S)-2-aminocyclohexyl]amino}-4-{[6-(trifluoromethyl)pyridin-2-yl]amino}pyridine-3-carboxamide], the IC50 in data set [1] (read-out: IC50) is 3.5 nM; in data set [1] (read-out: rhSYK Activity), less than 10 nM.

As for `Cc1cccc(Nc2cc(N[C@@H]3CCCC[C@@H]3N)ncc2C(N)=O)n1` [Example 1.2, 6-{[(1R,2S)-2-aminocyclohexyl]amino}-4-[(6-methylpyridin-2-yl)amino]pyridine-3-carboxamide], the IC50 is 4.5 nM in data set [1] (read-out: IC50) and 10 to 100 nM in data set [1] (read-out: rhSYK Activity).

With `Cc1cccc(Nc2cc(NCCN)ncc2C(N)=O)n1` [Example 1.3, 6-[(2-aminoethyl)amino]-4-[(6-methylpyridin-2-yl)amino]pyridine-3-carboxamide], the IC50 in data set [1] (read-out: IC50) is 170 nM; in data set [1] (read-out: rhSYK Activity), 100 to 1000 nM.

In the case of `NC(=O)c1cnc(N[C@@H]2CCCC[C@@H]2N)cc1Nc1cccc(-n2nccn2)n1` [Example 1.4, 6-{[(1R,2S)-2-aminocyclohexyl]amino}-4-{[6-(2H-1,2,3-triazol-2-yl)pyridin-2-yl]amino}pyridine-3-carboxamide], the IC50 in data set [1] (read-out: rhSYK Activity) was less than 10 nM.

Consider `NC(=O)c1cnc(N[C@@H]2CCCC[C@@H]2N)cc1Nc1ccc2ccccc2n1` [Example 1.6, 6-{[(1R,2S)-2-aminocyclohexyl]amino}-4-(quinolin-2-ylamino)pyridine-3-carboxamide], for which the IC50 was 5.8 nM in data set [1] (read-out: IC50) and less than 10 nM in data set [1] (read-out: rhSYK Activity).

For the molecule `Cc1nc(Nc2cc(N[C@@H]3CCCC[C@@H]3N)ncc2C(N)=O)ccc1F` [Example 1.7, 6-{[(1R,2S)-2-aminocyclohexyl]amino}-4-[(5-fluoro-6-methylpyridin-2-yl)amino]pyridine-3-carboxamide], the IC50 in data set [1] (read-out: rhSYK Activity) lay in the range of 10 to 100 nM.

On to `C[C@H](N)CNc1cc(Nc2cc(-c3cnn(C)c3)cc(-c3cnn(C)c3)n2)c(C(N)=O)cn1` [Example 1.8, 6-{[(2S)-2-aminopropyl]amino}-4-{[4,6-bis(1-methyl-1H-pyrazol-4-yl)pyridin-2-yl]amino}pyridine-3-carboxamide], for which the IC50 in data set [1] (read-out: rhSYK Activity) was less than 10 nM.

With `Cc1nc(Nc2cc(NC[C@H](C)N)ncc2C(N)=O)ccc1-c1cnn(C)c1` [Example 1.9, 6-{[(2S)-2-aminopropyl]amino}-4-{[6-methyl-5-(1-methyl-1H-pyrazol-4-yl)pyridin-2-yl]amino}pyridine-3-carboxamide], in data set [1] (read-out: rhSYK Activity), the IC50 was less than 10 nM.

In the case of `CCC(N)CNc1cc(Nc2cccc(C)n2)c(C(N)=O)cn1` (centres unmarked) [Example 2.1, 6-[(2-aminobutyl)amino]-4-[(6-methylpyridin-2-yl)amino]pyridine-3-carboxamide], in data set [1] (read-out: rhSYK Activity), the IC50 is 100 to 1000 nM.

As for `Cc1cc(C)nc(Nc2cc(NCCN)ncc2C(N)=O)c1` [Example 2.2, 6-[(2-aminoethyl)amino]-4-[(4,6-dimethylpyridin-2-yl)amino]pyridine-3-carboxamide], in data set [1] (read-out: rhSYK Activity), the IC50 is 10 to 100 nM.

As to `Cc1cc(C)nc(Nc2cc(NCC3(N)CCOCC3)ncc2C(N)=O)c1` [Example 2.5], the IC50 in data set [1] (read-out: rhSYK Activity) lay in the range of 1000 to 10000 nM.

With `COC[C@H](N)CNc1cc(Nc2cccc(C)n2)c(C(N)=O)cn1` [Example 2.7, 6-{[(2R)-2-amino-3-methoxypropyl]amino}-4-[(6-methylpyridin-2-yl)amino]pyridine-3-carboxamide], the IC50 in data set [1] (read-out: rhSYK Activity) was 100 to 1000 nM.

For `Cc1nc(Nc2cc(NCCN)ncc2C(N)=O)ccc1Br` [Example 2.13, 6-[(2-aminoethyl)amino]-4-[(5-bromo-6-methylpyridin-2-yl)amino]pyridine-3-carboxamide], the IC50 in data set [1] (read-out: IC50) was 66 nM; in data set [1] (read-out: rhSYK Activity), 10 to 100 nM.

Turning to `Cc1cc(C)nc(Nc2cc(NC[C@H](C)N)ncc2C(N)=O)c1` [Example 3.1, 6-{[(2S)-2-aminopropyl]amino}-4-[(4,6-dimethylpyridin-2-yl)amino]pyridine-3-carboxamide], the IC50 in data set [1] (read-out: rhSYK Activity) lay in the range of 10 to 100 nM.

`Cc1cc(C)nc(Nc2cc(N[C@@H]3[C@H](N)CCCC3(F)F)ncc2C(N)=O)c1` [Example 3.2, 6-{[(1R,6R)-6-amino-2,2-difluorocyclohexyl]amino}-4-[(4,6-dimethylpyridin-2-yl)amino]pyridine-3-carboxamide]: the IC50 in data set [1] (read-out: IC50) is 510 nM; in data set [1] (read-out: rhSYK Activity) it was 100 to 1000 nM.

`Cc1cc(C)nc(Nc2cc(N[C@H]3[C@@H](N)CCCC3(F)F)ncc2C(N)=O)c1` [Example 3.3, 6-{[(1S,6S)-6-amino-2,2-difluorocyclohexyl]amino}-4-[(4,6-dimethylpyridin-2-yl)amino]pyridine-3-carboxamide]: the IC50 in data set [1] (read-out: rhSYK Activity) fell in the range of 10 to 100 nM.

Regarding `Oc1cccc(Nc2ncc(F)c(Nc3cccc(O)c3)n2)c1` [Example R112], the efficacy versus placebo result in data set [2] was “lack of efficacy versus placebo”. Moreover, in data set [3], the PGD2 entry is “statistically significant decrease” and the clinical safety entry is “safe across a range of indicators”.
